Measured values from PubChem BioAssay AID1259407 (Chemical Carcinogenesis Research Information System (CCRIS), 2018).
Activity calls are given as the source filed them. No rule for the calls is given here.

Test system: CCRIS mutagenicity, Ames/micronucleus/aberration tests
Assay: CCRIS mutagenicity studies
[1] = Test System: AMES SALMONELLA TYPHIMURIUM, Strain/Indicator: TA98, Metabolic Activation: NONE, Method: STANDARD PLATE
[2] = Test System: AMES SALMONELLA TYPHIMURIUM, Strain/Indicator: TA100, Metabolic Activation: NONE, Method: STANDARD PLATE
[3] = Test System: AMES SALMONELLA TYPHIMURIUM, Strain/Indicator: TA1537, Metabolic Activation: NONE, Method: STANDARD PLATE
[4] = Test System: AMES SALMONELLA TYPHIMURIUM, Strain/Indicator: TA98, Metabolic Activation: RAT, LIVER, S-9, AROCLOR 1254, Method: STANDARD PLATE
[5] = Test System: AMES SALMONELLA TYPHIMURIUM, Strain/Indicator: TA100, Metabolic Activation: RAT, LIVER, S-9, AROCLOR 1254, Method: STANDARD PLATE
[6] = Test System: AMES SALMONELLA TYPHIMURIUM, Strain/Indicator: TA1535, Metabolic Activation: NONE, Method: STANDARD PLATE
[7] = Test System: AMES SALMONELLA TYPHIMURIUM, Strain/Indicator: TA1535, Metabolic Activation: RAT, LIVER, S-9, AROCLOR 1254, Method: STANDARD PLATE
[8] = Test System: AMES SALMONELLA TYPHIMURIUM, Strain/Indicator: TA1537, Metabolic Activation: RAT, LIVER, S-9, AROCLOR 1254, Method: STANDARD PLATE
[9] = Test System: AMES SALMONELLA TYPHIMURIUM, Strain/Indicator: TA1538, Metabolic Activation: NONE, Method: STANDARD PLATE
[10] = Test System: AMES SALMONELLA TYPHIMURIUM, Strain/Indicator: TA1538, Metabolic Activation: RAT, LIVER, S-9, AROCLOR 1254, Method: STANDARD PLATE
[11] = Test System: AMES SALMONELLA TYPHIMURIUM, Strain/Indicator: TA97, Metabolic Activation: NONE, Method: PREINCUBATION
[12] = Test System: AMES SALMONELLA TYPHIMURIUM, Strain/Indicator: TA98, Metabolic Activation: NONE, Method: PREINCUBATION
[13] = Test System: AMES SALMONELLA TYPHIMURIUM, Strain/Indicator: TA100, Metabolic Activation: NONE, Method: PREINCUBATION

COC(COC(N)=O)C1=C(N2CC2)C(=O)C(C)=C(N2CC2)C1=O (stereo not drawn)
mutagenic call [1]: active; positive
mutagenic call [2]: active; positive
mutagenic call [3]: active; positive
mutagenic call (Test System: CHINESE HAMSTER V-79, Strain/Indicator: V-79/6-THIOGUANINE, Metabolic Activation: NONE, Method: FLASK ASSAY): active; positive
mutagenic call (Test System: E. COLI, Strain/Indicator: WP2 (HCR), Metabolic Activation: NONE, Method: STANDARD PLATE): active; positive

COc1cc(N)c([N+](=O)[O-])cc1N
mutagenic call [1]: active; positive
mutagenic call [4]: active; positive
mutagenic call [2]: inactive; negative
mutagenic call [5]: active; positive
mutagenic call [6]: inactive; negative
mutagenic call [7]: inactive; negative
mutagenic call [3]: active; positive
mutagenic call [8]: active; positive
mutagenic call [9]: active; positive
mutagenic call [10]: active; positive

CN(C)c1ccc(N=NS(=O)(=O)O)cc1
mutagenic call (Test System: AMES SALMONELLA TYPHIMURIUM, Strain/Indicator: TA97, Metabolic Activation: HAMSTER, LIVER, S-9, AROCLOR 1254 (10%), Method: PREINCUBATION): active; positive
mutagenic call [11]: active; positive
mutagenic call (Test System: AMES SALMONELLA TYPHIMURIUM, Strain/Indicator: TA97, Metabolic Activation: RAT, LIVER, S-9, AROCLOR 1254 (10%), Method: PREINCUBATION): active; positive
mutagenic call (Test System: AMES SALMONELLA TYPHIMURIUM, Strain/Indicator: TA98, Metabolic Activation: HAMSTER, LIVER, S-9, AROCLOR 1254 (10%), Method: PREINCUBATION): active; positive
mutagenic call [12]: active; positive
mutagenic call [1]: active; positive
mutagenic call (Test System: AMES SALMONELLA TYPHIMURIUM, Strain/Indicator: TA98, Metabolic Activation: RAT, LIVER, S-9, AROCLOR 1254 (10%), Method: PREINCUBATION): active; positive
mutagenic call (Test System: AMES SALMONELLA TYPHIMURIUM, Strain/Indicator: TA98, Metabolic Activation: S-9 MIX, Method: STANDARD PLATE): active; positive
mutagenic call (Test System: AMES SALMONELLA TYPHIMURIUM, Strain/Indicator: TA100, Metabolic Activation: HAMSTER, LIVER, S-9, AROCLOR 1254 (10%), Method: PREINCUBATION): active; positive
mutagenic call [13]: active; positive
mutagenic call (Test System: AMES SALMONELLA TYPHIMURIUM, Strain/Indicator: TA100, Metabolic Activation: RAT, LIVER, S-9, AROCLOR 1254 (10%), Method: PREINCUBATION): active; positive
mutagenic call (Test System: AMES SALMONELLA TYPHIMURIUM, Strain/Indicator: TA1535, Metabolic Activation: HAMSTER, LIVER, S-9, AROCLOR 1254 (10%), Method: PREINCUBATION): active; positive
mutagenic call (Test System: AMES SALMONELLA TYPHIMURIUM, Strain/Indicator: TA1535, Metabolic Activation: NONE, Method: PREINCUBATION): inactive; negative
mutagenic call (Test System: AMES SALMONELLA TYPHIMURIUM, Strain/Indicator: TA1535, Metabolic Activation: RAT, LIVER, S-9, AROCLOR 1254 (10%), Method: PREINCUBATION): inactive; negative
mutagenic call (Test System: E. COLI, Strain/Indicator: WP2, Metabolic Activation: NONE, Method: STANDARD PLATE): active; positive
mutagenic call (Test System: E. COLI, Strain/Indicator: WP2 UVRA, Metabolic Activation: NONE, Method: STANDARD PLATE): active; positive

CCCCCCC(CCCC)COc1ccc(-c2ccc(-c3ccc(-c4ccc(OCC(CCCC)CCCCCC)cc4)cc3)cc2)cc1 (stereo not drawn)
mutagenic call [9]: inactive; negative
mutagenic call [10]: inactive; negative

C=C(C)C(=O)OCCOC(=O)C(=C)C
mutagenic call (Test System: AMES SALMONELLA TYPHIMURIUM, Strain/Indicator: TA98, Metabolic Activation: HAMSTER, LIVER, S-9, AROCLOR 1254, Method: STANDARD PLATE): inactive; negative
mutagenic call [1]: inactive; negative
mutagenic call (Test System: AMES SALMONELLA TYPHIMURIUM, Strain/Indicator: TA98, Metabolic Activation: RAT, LIVER, AROCLOR 1254, Method: STANDARD PLATE): inactive; negative
mutagenic call [4]: inactive; negative
mutagenic call (Test System: AMES SALMONELLA TYPHIMURIUM, Strain/Indicator: TA98, Metabolic Activation: RAT, LIVER, S-9, SODIUM PHENOBARBITAL, Method: STANDARD PLATE): inactive; negative
mutagenic call (Test System: AMES SALMONELLA TYPHIMURIUM, Strain/Indicator: TA100, Metabolic Activation: HAMSTER, LIVER, S-9, AROCLOR 1254, Method: STANDARD PLATE): inactive; negative
mutagenic call [2]: inactive; negative
mutagenic call [5]: inactive; negative
mutagenic call (Test System: AMES SALMONELLA TYPHIMURIUM, Strain/Indicator: TA100, Metabolic Activation: RAT, LIVER, S-9, SODIUM PHENOBARBITAL, Method: STANDARD PLATE): inactive; negative
mutagenic call (Test System: AMES SALMONELLA TYPHIMURIUM, Strain/Indicator: TA1535, Metabolic Activation: HAMSTER, LIVER, S-9, AROCLOR 1254, Method: STANDARD PLATE): inactive; negative
mutagenic call [6]: inactive; negative
mutagenic call [7]: inactive; negative
mutagenic call (Test System: AMES SALMONELLA TYPHIMURIUM, Strain/Indicator: TA1535, Metabolic Activation: RAT, LIVER, S-9, SODIUM PHENOBARBITAL, Method: STANDARD PLATE): inactive; negative
mutagenic call (Test System: AMES SALMONELLA TYPHIMURIUM, Strain/Indicator: TA1537, Metabolic Activation: HAMSTER, LIVER, S-9, AROCLOR 1254, Method: STANDARD PLATE): inactive; negative
mutagenic call [3]: inactive; negative
mutagenic call [8]: inactive; negative
mutagenic call (Test System: AMES SALMONELLA TYPHIMURIUM, Strain/Indicator: TA1537, Metabolic Activation: RAT, LIVER, S-9, SODIUM PHENOBARBITAL, Method: STANDARD PLATE): inactive; negative
mutagenic call [9]: inactive; negative
mutagenic call [10]: inactive; negative
mutagenic call (Test System: AMES SALMONELLA TYPHIMURIUM, Strain/Indicator: TA1538, Metabolic Activation: RAT, LIVER, S-9, SODIUM PHENOBARBITAL, Method: STANDARD PLATE): inactive; negative
mutagenic call (Test System: Mouse lymphoma, Strain/Indicator: L5178Y (tk+/tk-), Metabolic Activation: Rat, Liver, S-9, Aroclor 1254, Method: Suspension/plate): active; positive

COc1ccc(O)c(C(C)(C)C)c1
mutagenic call [11]: inactive; negative
mutagenic call (Test System: AMES SALMONELLA TYPHIMURIUM, Strain/Indicator: TA97, Metabolic Activation: RAT, LIVER, S-9, PCB, Method: PREINCUBATION): inactive; negative
mutagenic call [12]: inactive; negative
mutagenic call (Test System: AMES SALMONELLA TYPHIMURIUM, Strain/Indicator: TA98, Metabolic Activation: RAT, LIVER, S-9, PCB, Method: PREINCUBATION): inactive; negative
mutagenic call [13]: inactive; negative
mutagenic call (Test System: AMES SALMONELLA TYPHIMURIUM, Strain/Indicator: TA100, Metabolic Activation: RAT, LIVER, S-9, PCB, Method: PREINCUBATION): inactive; negative
mutagenic call (Test System: AMES SALMONELLA TYPHIMURIUM, Strain/Indicator: TA102, Metabolic Activation: NONE, Method: PREINCUBATION): inactive; negative
mutagenic call (Test System: AMES SALMONELLA TYPHIMURIUM, Strain/Indicator: TA102, Metabolic Activation: RAT, LIVER, S-9, PCB, Method: PREINCUBATION): inactive; negative

CN(C)CCNC(=O)c1cccc2c1C(=O)c1ccccc1C2=O
mutagenic call [3]: active; positive
